Laboratory results published in patent publication US20090105283A1, “3-HYDROQUINAZOLIN-4-ONE DERIVATIVES FOR USE AS STEAROYL CoA DESATURASE INHIBITORS” (priority 2007, published 2009).

Molecular target: T1, stearoyl-CoA desaturase (SCD) (Rattus norvegicus, UniProt P07308)
T1 construct: The microsomes were quickly thawed and added to assay buffer so that a concentration of 0.4 mg/ml was achieved; from tissue
T1 sequence (P07308 1-358): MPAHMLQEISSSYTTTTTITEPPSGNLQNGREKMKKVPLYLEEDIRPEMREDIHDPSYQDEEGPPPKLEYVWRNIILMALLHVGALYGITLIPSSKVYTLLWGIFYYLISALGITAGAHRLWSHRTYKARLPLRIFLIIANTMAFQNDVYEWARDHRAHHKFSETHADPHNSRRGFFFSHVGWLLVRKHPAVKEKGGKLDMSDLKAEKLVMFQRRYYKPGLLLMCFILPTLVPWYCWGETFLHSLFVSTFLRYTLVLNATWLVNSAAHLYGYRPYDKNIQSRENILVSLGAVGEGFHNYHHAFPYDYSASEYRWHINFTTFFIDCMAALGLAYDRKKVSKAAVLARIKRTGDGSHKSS
Assay: SCD assay with rat liver microsomes ([3H]stearoyl CoA, adapted from Talamo and Bloch)
Assay type: biochemical
Conditions: Table 1; rat liver microsomes 0.2 mg/ml assay final, [3H]stearoyl CoA substrate, 30 min preincubation, 45 min reaction, room temperature
Summary of the method: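 Liver microsomes came from diet-induced male Sprague Dawley rats and were used at 0.2 mg/ml final. Assay buffer was Tris pH 7.2 with NADH, ATP, CoA, MgCl2 and 0.1% BSA. Compounds were preincubated 30 min, then reacted 45 min at room temperature with [3H]stearoyl-CoA; after TCA stop and Bio-Bead cleanup, supernatant radioactivity was counted by scintillation.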

SMILES | IC50 [nM]
CC(Oc1ccccc1Cl)C(=O)Nc1ccc2ncn(Cc3ccc(Cl)c(Cl)c3)c(=O)c2c1 (centres unmarked) [XXXIV, N-{3-[(3,4-dichlorophenyl)methyl]-4-oxo(3-hydroquinazolin-6-yl)}-2-(2-chlorophenoxy)propanamide] | 2100
O=C(CSc1ccncc1)Nc1ccc2ncn(Cc3ccc(Cl)cc3)c(=O)c2c1 [XXXVII, N-{3-[(4-chlorophenyl)methyl]-4-oxo(3-hydroquinazolin-6-yl)}-2-(4-pyridylthio)acetamide] | 7300
O=C(COc1ccccc1)Nc1ccc2ncn(Cc3ccc(Br)cc3)c(=O)c2c1 [XXXVIII, N-{3-[(4-bromophenyl)methyl]-4-oxo(3-hydroquinazolin-6-yl)}-2-phenoxyacetamide] | 15000

Other lines, results leading:

IC50 [nM] | SMILES
780 | COc1ccccc1OCC(=O)Nc1ccc2ncn(Cc3ccc(Cl)c(Cl)c3)c(=O)c2c1 [XXV, N-{3-[(3,4-dichlorophenyl)methyl]-4-oxo(3-hydroquinazolin-6-yl)}-2-(2-methoxyphenoxy)acetamide]
3690 | O=C(COc1ccccc1F)Nc1ccc2ncn(Cc3ccc(Cl)c(Cl)c3)c(=O)c2c1 [XXVI, N-{3-[(3,4-dichlorophenyl)methyl]-4-oxo(3-hydroquinazolin-6-yl)}-2-(2-fluorophenoxy)acetamide]
2010 | O=C(COc1cccc(F)c1)Nc1ccc2ncn(Cc3ccc(Cl)c(Cl)c3)c(=O)c2c1 [XXVII, N-{3-[(3,4-dichlorophenyl)methyl]-4-oxo(3-hydroquinazolin-6-yl)}-2-(3-fluorophenoxy)acetamide]
3430 | O=C(COc1ccc(F)cc1F)Nc1ccc2ncn(Cc3ccc(Cl)c(Cl)c3)c(=O)c2c1 [XXVIII, N-{3-[(3,4-dichlorophenyl)methyl]-4-oxo(3-hydroquinazolin-6-yl)}-2-(2,4-difluorophenoxy)acetamide]
3780 | O=C(COc1cccc(Cl)c1Cl)Nc1ccc2ncn(Cc3ccc(Cl)c(Cl)c3)c(=O)c2c1 [XXX, N-{3-[(3,4-dichlorophenyl)methyl]-4-oxo(3-hydroquinazolin-6-yl)}-2-(2,3-dichlorophenoxy)acetamide]
15000 | O=C(COc1ccccc1[N+](=O)[O-])Nc1ccc2ncn(Cc3ccc(Cl)c(Cl)c3)c(=O)c2c1 [XXXI, N-{3-[(3,4-dichlorophenyl)methyl]-4-oxo(3-hydroquinazolin-6-yl)}-2-(2-nitrophenoxy)acetamide]
2850 | O=C(COc1ccc2ccccc2c1)Nc1ccc2ncn(Cc3ccc(Cl)c(Cl)c3)c(=O)c2c1 [XXXII, N-{3-[(3,4-dichlorophenyl)methyl]-4-oxo(3-hydroquinazolin-6-yl)}-2-(2-naphthyloxy)acetamide]
6880 | O=C(CCOc1ccccc1)Nc1ccc2ncn(Cc3ccc(Cl)c(Cl)c3)c(=O)c2c1 [XXXIII, N-{3-[(3,4-dichlorophenyl)methyl]-4-oxo(3-hydroquinazolin-6-yl)}-3-phenoxypropanamide]
6100 | O=C(COc1ccccc1)Nc1ccc2ncn(Cc3ccc(Cl)c(F)c3)c(=O)c2c1 [XXXIX, N-{3-[(4-chloro-3-fluorophenyl)methyl]-4-oxo(3-hydroquinazolin-6-yl)}-2-phenoxyacetamide]
21000 | O=C(COc1cccc2nsnc12)Nc1ccc2ncn(Cc3ccc(Cl)c(Cl)c3)c(=O)c2c1 [XXXV, 2-benzo[c]1,2,5-thiadiazol-4-yloxy-N-{3-[(3,4-dichlorophenyl)methyl]-4-oxo(3-hydroquinazolin-6-yl)}acetamide]
3100 | O=C(COc1cccnc1)Nc1ccc2ncn(Cc3ccc(Cl)c(Cl)c3)c(=O)c2c1 [XXXVI, N-{3-[(3,4-dichlorophenyl)methyl]-4-oxo(3-hydroquinazolin-6-yl)}-2-(3-pyridyloxy)acetamide]

Same assay, conditions: Table 2 (Example 21, procedures of Example 20); rat liver microsomes, [3H]stearoyl CoA substrate

IC50 [nM] | SMILES
2100 | CC(=O)OCC(=O)Nc1ccc2ncn(Cc3ccc(F)c(F)c3)c(=O)c2c1 [compound 1, 2-(3-(3,4-difluorobenzyl)-4-oxo-3,4-dihydroquinazolin-6-ylamino)-2-oxoethyl acetate]
2400 | O=C(CO)Nc1ccc2ncn(Cc3ccc(F)c(F)c3)c(=O)c2c1 [compound 2, N-(3-(3,4-difluorobenzyl)-4-oxo-3,4-dihydroquinazolin-6-yl)-2-hydroxyacetamide]
940 | CC(=O)OCC(=O)Nc1ccc2ncn(Cc3ccc(Cl)cc3)c(=O)c2c1 [compound 3, 2-(3-(4-chlorobenzyl)-4-oxo-3,4-dihydroquinazolin-6-ylamino)-2-oxoethyl acetate]
1200 | O=C(CO)Nc1ccc2ncn(Cc3ccc(Cl)cc3)c(=O)c2c1 [compound 4, N-(3-(4-chlorobenzyl)-4-oxo-3,4-dihydroquinazolin-6-yl)-2-hydroxyacetamide]
8000 | O=C(COc1ccccc1)Nc1ccc2ncn(Cc3ccc(Cl)cc3)c(=O)c2c1 [compound 5, N-(3-(4-chlorobenzyl)-4-oxo-3,4-dihydroquinazolin-6-yl)-2-phenoxyacetamide]
130 | CC(=O)OCC(=O)Nc1ccc2ncn(Cc3ccc(Cl)c(C(F)(F)F)c3)c(=O)c2c1 [compound 6, 2-(3-(4-chloro-3-(trifluoromethyl)benzyl)-4-oxo-3,4-dihydroquinazolin-6-ylamino)-2-oxoethyl acetate]
190 | O=C(CO)Nc1ccc2ncn(Cc3ccc(Cl)c(C(F)(F)F)c3)c(=O)c2c1 [compound 7, N-(3-(4-chloro-3-(trifluoromethyl)benzyl)-4-oxo-3,4-dihydroquinazolin-6-yl)-2-hydroxyacetamide]
1200 | Cc1nc2cc(NC(=O)OCc3ccccc3)ccc2c(=O)n1Cc1ccc(Cl)c(Cl)c1 [compound 8, benzyl 3-(3,4-dichlorobenzyl)-2-methyl-4-oxo-3,4-dihydroquinazolin-7-ylcarbamate]
290 | CC(c1ccc(Cl)c(Cl)c1)n1cnc2cc(NC(=O)OCc3ccccc3)ccc2c1=O (centres unmarked) [compound 9, benzyl 3-(1-(3,4-dichlorophenyl)ethyl)-4-oxo-3,4-dihydroquinazolin-7-ylcarbamate]
130 | CC(=O)OCC(=O)Nc1ccc2c(=O)n(C(C)c3ccc(Cl)c(Cl)c3)cnc2c1 (centres unmarked) [compound 10, 2-(3-(1-(3,4-dichlorophenyl)ethyl)-4-oxo-3,4-dihydroquinazolin-7-ylamino)-2-oxoethyl acetate]
170 | CC(c1ccc(Cl)c(Cl)c1)n1cnc2cc(NC(=O)CO)ccc2c1=O (centres unmarked) [compound 11, N-(3-(1-(3,4-dichlorophenyl)ethyl)-4-oxo-3,4-dihydroquinazolin-7-yl)-2-hydroxyacetamide]
1400 | COc1cccc(Cn2cnc3ccc(NC(=O)OCc4ccccc4)cc3c2=O)c1 [compound 12, benzyl 3-(3-methoxybenzyl)-4-oxo-3,4-dihydroquinazolin-6-ylcarbamate]
1700 | CC(=O)OCC(=O)Nc1ccc2ncn(Cc3ccc(F)c(Cl)c3)c(=O)c2c1 [compound 13, 2-(3-(3-chloro-4-fluorobenzyl)-4-oxo-3,4-dihydroquinazolin-6-ylamino)-2-oxoethyl acetate]
310 | O=C(Nc1ccc2ncn(Cc3ccc(F)c(C(F)(F)F)c3)c(=O)c2c1)OCc1ccccc1 [compound 14, benzyl 3-(4-fluoro-3-(trifluoromethyl)benzyl)-4-oxo-3,4-dihydroquinazolin-6-ylcarbamate]
700 | CC(=O)OCC(=O)Nc1ccc2ncn(Cc3ccc(F)c(C(F)(F)F)c3)c(=O)c2c1 [compound 15, 2-(3-(4-fluoro-3-(trifluoromethyl)benzyl)-4-oxo-3,4-dihydroquinazolin-6-ylamino)-2-oxoethyl acetate]
